Earlier results in US20260297106A1, “SPIROCYCLIC SUBSTITUTED OXOISOINDOLINYL PIPERIDINE-2,6-DIONE COMPOUND” (Bristol-Myers Squibb Company, priority 2023, published 2026).

Columns and labels:
T and NK cell = conditions: preclinical and clinical studies; cited from earlier work
[1] = test system: highly immunogenic syngeneic tumors; conditions: engineered mouse models; cited from earlier work

Nc1cccc2c1CN(C1CCC(=O)NC1=O)C2=O (centres unmarked) [lenalidomide]
T and NK cell functions (T and NK cell): augment T and NK cell functions | antitumor immune responses [1]: modestly increase antitumor immune responses
